Measurements as given in US8993585B2, “Cyclic amine substituted pyrimidinediamines as PKC inhibitors” (Rigel Pharmaceuticals, Inc., priority 2007, dated 2015).
pIC50: −log10 of the molar value.

Experiments:
PKC theta = target: T1, PKC theta (Homo sapiens, UniProt Q04759); experiment: PKC assay, fluorescence polarization (Example 2), PKC theta; format: biochemical; settings: 5 μM ATP
T1 construct: purchased Upstate Biotechnologies, Temecula, CA 14-444
Description: The inhibition of PKC activity was measured by monitoring the production of phosphorylated peptide by fluorescence polarization at different concentrations of the inhibitor. Reactions were carried out in 96-well plate format with a total volume of 20 μL containing 20 mM HEPES, pH 7.4, 5 mM MgCl2, 0.2 mM CaCl2, 1 mM DTT, 0.02% Brij-35, 0.1 mg/mL phosphatidylserine, 0.02 mg/mL dioleoyl-sn-glycerol and 5 μM each of ATP and the peptide substrate. Compounds were first diluted serially in DMSO and then transferred to a solution containing the above concentrations of HEPES, MgCl2, CaCl2, DTT, and Brij-35 to yield 5× compound solutions in 2% DMSO, which was then added to the reaction solution. Reactions were initiated by the addition of PKC at a typical concentration as described in Table VI, and then allowed to incubate at room temperature for 20 min. At the end of this time, a combination of quench (EDTA) and detection (peptide tracer and antibody) reagents was added using the protocol of Invitrogen P2748.

Human primary T cells = experiment: IL-2 ELISA, Human Primary T Cell, Anti-CD3+CD28+ (Example 3); format: cell-based; settings: anti-CD3+CD28 stimulation
How it was run: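 Human primary T cells, 100,000 per well, were pre-incubated with compound in Yssel's medium for 1 h at 37 °C. The counter-assay used 0.5 ng/ml PMA with 0.1 uM ionomycin final.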

T1 sequence (Q04759 whole entry): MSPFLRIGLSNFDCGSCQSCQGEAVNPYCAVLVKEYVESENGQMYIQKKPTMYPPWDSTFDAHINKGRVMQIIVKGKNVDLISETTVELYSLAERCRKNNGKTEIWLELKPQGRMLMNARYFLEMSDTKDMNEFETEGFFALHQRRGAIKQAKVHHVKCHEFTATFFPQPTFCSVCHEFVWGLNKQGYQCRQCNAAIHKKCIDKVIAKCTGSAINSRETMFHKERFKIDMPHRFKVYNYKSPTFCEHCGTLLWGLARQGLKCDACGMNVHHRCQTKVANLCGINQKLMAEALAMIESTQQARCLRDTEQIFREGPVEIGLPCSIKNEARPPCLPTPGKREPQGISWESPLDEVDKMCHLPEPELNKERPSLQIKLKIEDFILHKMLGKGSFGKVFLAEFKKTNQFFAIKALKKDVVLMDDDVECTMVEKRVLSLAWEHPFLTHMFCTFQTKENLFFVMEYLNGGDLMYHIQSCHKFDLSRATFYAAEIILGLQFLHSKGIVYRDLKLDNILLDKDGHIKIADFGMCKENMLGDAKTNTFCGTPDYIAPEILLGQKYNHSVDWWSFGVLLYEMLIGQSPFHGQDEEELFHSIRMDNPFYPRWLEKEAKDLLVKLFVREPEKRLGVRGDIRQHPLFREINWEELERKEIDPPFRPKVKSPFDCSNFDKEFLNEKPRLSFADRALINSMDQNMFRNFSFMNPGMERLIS

CN1CCN(c2ccc(Nc3ncc(F)c(NC4CC(C)(C)N(C)C(C)(C)C4)n3)cc2)CC1 [Compound I-1]
pIC50 (PKC theta): 6.65 | pIC50 (Human primary T cells; Homo sapiens, T-cell, 24 h): 5.52

CN1CCN(c2cccc(Nc3ncc(F)c(NC4CC(C)(C)N(C)C(C)(C)C4)n3)c2)CC1 [Compound I-2]
pIC50 (PKC theta): 6.39 | pIC50 (Human primary T cells; Homo sapiens, T-cell, 24 h): 5.81

CN1CCN(c2ccc(Nc3ncc(F)c(NC4CC(C)(C)N(C)C(C)(C)C4)n3)cc2Cl)CC1 [Compound I-3]
pIC50 (PKC theta): 8.30 | pIC50 (Human primary T cells; Homo sapiens, T-cell, 24 h): 6.97

Cc1cc(Nc2ncc(F)c(NC3CC(C)(C)N(C)C(C)(C)C3)n2)ccc1N1CCN(C)CC1 [Compound I-4]
pIC50 (PKC theta): 7.52 | pIC50 (Human primary T cells; Homo sapiens, T-cell, 24 h): 6.60

CN1CCN(c2ccc(Nc3ncc(F)c(NC4CC(C)(C)N(C)C(C)(C)C4)n3)cc2C(F)(F)F)CC1 [Compound I-5]
pIC50 (PKC theta): 8.30 | pIC50 (Human primary T cells; Homo sapiens, T-cell, 24 h): 7.07

CCN1CCN(c2ccc(Nc3ncc(F)c(NC4CC(C)(C)N(C)C(C)(C)C4)n3)cn2)CC1 [Compound I-6]
pIC50 (PKC theta): 6.74 | pIC50 (Human primary T cells; Homo sapiens, T-cell, 24 h): 5.77

Cc1cc(Nc2ncc(F)c(NC3CC(C)(C)N(C)C(C)(C)C3)n2)cnc1N1CCN(C)CC1 [Compound I-7]
pIC50 (PKC theta): 7.80 | pIC50 (Human primary T cells; Homo sapiens, T-cell, 24 h): 6.28

Cc1cc(N2CCN(C)CC2)ncc1Nc1ncc(F)c(NC2CC(C)(C)N(C)C(C)(C)C2)n1 [Compound I-8]
pIC50 (PKC theta): 6.67 | pIC50 (Human primary T cells; Homo sapiens, T-cell, 24 h): 5.24

CN1C(C)(C)CC(Nc2nc(Nc3ccc(S(N)(=O)=O)cc3)ncc2F)CC1(C)C [Compound I-9]
pIC50 (PKC theta): 7.07 | pIC50 (Human primary T cells; Homo sapiens, T-cell, 24 h): 5.46

CN1C(C)(C)CC(Nc2nc(Nc3cccc(S(N)(=O)=O)c3)ncc2F)CC1(C)C [Compound I-10]
pIC50 (PKC theta): 7.15 | pIC50 (Human primary T cells; Homo sapiens, T-cell, 24 h): 5.73

Cc1ccc(Nc2ncc(F)c(NC3CC(C)(C)N(C)C(C)(C)C3)n2)cc1S(N)(=O)=O [Compound I-11]
pIC50 (PKC theta): 7.28 | pIC50 (Human primary T cells; Homo sapiens, T-cell, 24 h): 5.80

Cc1cc(C)cc(Nc2ncc(F)c(NC3CC(C)(C)N(C)C(C)(C)C3)n2)c1 [Compound I-12]
pIC50 (PKC theta): 7.66 | pIC50 (Human primary T cells; Homo sapiens, T-cell, 24 h): 6.47

CN1C(C)(C)CC(Nc2nc(Nc3nc(-c4cccnc4)cs3)ncc2F)CC1(C)C [II-136]
pIC50 (Human primary T cells; Homo sapiens, T-cell, 24 h): 6.04

COc1ccc(-c2csc(Nc3ncc(F)c(NC4CC(C)(C)N(C)C(C)(C)C4)n3)n2)cc1F [II-137]
pIC50 (Human primary T cells; Homo sapiens, T-cell, 24 h): 6.34

COc1ccc(-c2csc(Nc3ncc(F)c(NC4CC(C)(C)N(C)C(C)(C)C4)n3)n2)cc1OC [II-138]
pIC50 (Human primary T cells; Homo sapiens, T-cell, 24 h): 6.15

CN1C(C)(C)CC(Nc2nc(Nc3nc(-c4ccc(Oc5ccccc5)cc4)cs3)ncc2F)CC1(C)C [II-139]
pIC50 (Human primary T cells; Homo sapiens, T-cell, 24 h): 6.04

CN1C(C)(C)CC(Nc2nc(Nc3nc(-c4ccc(C(F)(F)F)cc4)cs3)ncc2F)CC1(C)C [II-140]
pIC50 (Human primary T cells; Homo sapiens, T-cell, 24 h): 6.23

CN1C(C)(C)CC(Nc2nc(Nc3nc(-c4ccc(F)cc4F)cs3)ncc2F)CC1(C)C [II-141]
pIC50 (Human primary T cells; Homo sapiens, T-cell, 24 h): 6.00

CN1C(C)(C)CC(Nc2nc(Nc3nc(-c4ccc(NS(=O)(=O)c5ccc(Cl)cc5)cc4)cs3)ncc2F)CC1(C)C [II-142]
pIC50 (Human primary T cells; Homo sapiens, T-cell, 24 h): 5.99

CN1C(C)(C)CC(Nc2nc(Nc3nc4ccc(S(C)(=O)=O)cc4s3)ncc2F)CC1(C)C [II-144]
pIC50 (Human primary T cells; Homo sapiens, T-cell, 24 h): 5.97

Cc1cnc(Nc2ccc3c(c2)OCCO3)nc1NC1CC(C)(C)N(C)C(C)(C)C1 [II-146]
pIC50 (Human primary T cells; Homo sapiens, T-cell, 24 h): 5.50

CN1C(C)(C)CC(Nc2nc(Nc3ccc4c(c3)C(=O)NC4=O)ncc2F)CC1(C)C [II-148]
pIC50 (Human primary T cells; Homo sapiens, T-cell, 24 h): 6.00

CN1C(=O)c2ccc(Nc3ncc(F)c(NC4CC(C)(C)N(C)C(C)(C)C4)n3)cc2C1=O [II-149]
pIC50 (Human primary T cells; Homo sapiens, T-cell, 24 h): 6.00

CN1C(C)(C)CC(Nc2nc(Nc3ccc4c(c3)OCCO4)ncc2C#C[Si](C)(C)C)CC1(C)C [II-150]
pIC50 (Human primary T cells; T-cell, 24 hours): 5.45

CCN1C(=O)C(C)(C)Oc2cc(Nc3ncc(C#C[Si](C)(C)C)c(NC4CC(C)(C)N(C)C(C)(C)C4)n3)ccc21 [II-151]
pIC50 (Human primary T cells; T-cell, 24 hours): 5.90

C#Cc1cnc(Nc2ccc3c(c2)OC(C)(C)C(=O)N3CC)nc1NC1CC(C)(C)N(C)C(C)(C)C1 [II-152]
pIC50 (Human primary T cells; Homo sapiens, T-cell, 24 h): 6.27

CN1C(=O)c2ccc(Nc3ncc(F)c(NC4CC(C)(C)NC(C)(C)C4)n3)cc2C1=O [II-153]
pIC50 (Human primary T cells; Homo sapiens, T-cell, 24 h): 5.74

C#Cc1cnc(Nc2ccc3c(c2)OCCO3)nc1NC1CC(C)(C)N(C)C(C)(C)C1 [II-156]
pIC50 (Human primary T cells; Homo sapiens, T-cell, 24 h): 5.23

CN1CCN(C(=O)C2COc3cc(Nc4ncc(F)c(NC5CC(C)(C)N(C)C(C)(C)C5)n4)ccc3O2)CC1 (stereo not shown) [II-158]
pIC50 (Human primary T cells; Homo sapiens, T-cell, 24 h): 5.14

CC1(C)CC(Nc2nc(Nc3ccc4c(c3)OCC(C(N)=O)O4)ncc2F)CC(C)(C)N1 (stereo not shown) [II-159]
pIC50 (Human primary T cells; Homo sapiens, T-cell, 24 h): 5.05

CN1CCN(C(=O)C2COc3cc(Nc4ncc(F)c(NC5CC(C)(C)NC(C)(C)C5)n4)ccc3O2)CC1 (stereo not shown) [II-160]
pIC50 (Human primary T cells; Homo sapiens, T-cell, 24 h): 4.75

CC(C)n1c(=O)oc2cc(Nc3ncc(C#N)c(NC4CC(C)(C)NC(C)(C)C4)n3)ccc21 [II-162]
pIC50 (Human primary T cells; Homo sapiens, T-cell, 24 h): 5.95

CC(C)N1C(=O)C2(CCC2)Oc2cc(Nc3ncc(F)c(NC4CC(C)(C)N(C)C(C)(C)C4)n3)ccc21 [II-165]
pIC50 (Human primary T cells; 24 hours): 6.39

CCCN1C(=O)C2(CCC2)Oc2cc(Nc3ncc(F)c(NC4CC(C)(C)N(C)C(C)(C)C4)n3)ccc21 [II-166]
pIC50 (Human primary T cells; 24 hours): 6.36

CN1C(C)(C)CC(Nc2nc(Nc3ccc4c(c3)oc(=O)n4CCN3CCOCC3)ncc2F)CC1(C)C [II-167]
pIC50 (Human primary T cells; Homo sapiens, T-cell, 24 h): 5.66

CC1(C)CC(Nc2nc(Nc3ccc4c(c3)oc(=O)n4CCN3CCOCC3)ncc2F)CC(C)(C)N1 [II-168]
pIC50 (Human primary T cells; Homo sapiens, T-cell, 24 h): 5.25

CN1C(C)(C)CC(Nc2nc(Nc3ccc4c(c3)oc(=O)n4CCN3CCOCC3)ncc2C#N)CC1(C)C [II-169]
pIC50 (Human primary T cells; Homo sapiens, T-cell, 24 h): 5.46

CC1(C)CC(Nc2nc(Nc3ccc4c(c3)oc(=O)n4CCN3CCOCC3)ncc2C#N)CC(C)(C)N1 [II-170]
pIC50 (Human primary T cells; Homo sapiens, T-cell, 24 h): 4.80

CN1C(C)(C)CC(Nc2nc(Nc3ccc4c(c3)oc(=O)n4CCF)ncc2F)CC1(C)C [II-172]
pIC50 (Human primary T cells; Homo sapiens, T-cell, 24 h): 6.12

CCn1c(=O)oc2ccc(Nc3ncc(F)c(NC4CC(C)(C)N(C)C(C)(C)C4)n3)cc21 [II-173]
pIC50 (Human primary T cells; Homo sapiens, T-cell, 24 h): 5.88

CCn1c(=O)oc2ccc(Nc3ncc(F)c(NC4CC(C)(C)NC(C)(C)C4)n3)cc21 [II-174]
pIC50 (Human primary T cells; Homo sapiens, T-cell, 24 h): 5.53

CN1C(C)(C)CC(Nc2nc(Nc3cc4c(cc3F)OC(F)(F)O4)ncc2F)CC1(C)C [II-176]
pIC50 (Human primary T cells; Homo sapiens, T-cell, 24 h): 5.67

COc1ccc(Nc2ncc(F)c(NC3CCN(C)CC3)n2)cc1Cl [III-1, N2-(3-Chloro-4-methoxy)phenyl-5-fluoro-N4-(1-methylpiperidin-4-yl)-2,4-pyrimidinediamine]
pIC50 (Human primary T cells; 24 hours): 5.62

COc1ccc(Nc2ncc(F)c(NC3CCN(CCO)CC3)n2)cc1Cl [III-5, N2-(3-Chloro-4-methoxy)phenyl-5-fluoro-N4-[1-(2-hydroxyethyl)piperidin-4-yl]-2,4-pyrimidinediamine]
pIC50 (Human primary T cells; 24 hours): 5.49

CN1CCN(c2ccc(Nc3ncc(F)c(NC4CCN(CCO)CC4)n3)cc2Cl)CC1 [III-8, N2-[3-Chloro-4-(4-methylpiperazino)]phenyl-5-fluoro-N4-[1-(2-hydroxyethyl)piperidin-4-yl]-2,4-pyrimidinediamine]
pIC50 (Human primary T cells; 24 hours): 5.58

COc1cc(Nc2ncc(F)c(NC3CCN(Cc4ccncc4)CC3)n2)cc(-n2nnnc2C)c1 [III-10, 5-fluoro-N2-[3-methoxy-5-(5-methyl-1H-tetrazol-1-yl)]phenyl-N4-[1-(pyridin-4-yl)methylpiperidin-4-yl]-2,4-pyrimidinediamine]
pIC50 (Human primary T cells; 24 hours): 5.65

COc1cc(Nc2ncc(F)c(NC3C[C@H](C)N(C)[C@@H](C)C3)n2)cc(-n2nnnc2C)c1 (stereo partly drawn) [IV-1, 5-Fluoro-N2-[3-methoxy-5-(5-methyl-tetrazol-1-yl)]phenyl-N4-(1,2,6,-trimethylpiperidin-4-yl)-2,4-pyrimidinediamine, trans isomer]
pIC50 (Human primary T cells; Homo sapiens, T-cell, 24 h): 6.76

COc1cc(Nc2nc(C)cc(NC3CC(C)(C)N(C)C(C)(C)C3)n2)cc(OC)c1 [IV-2]
pIC50 (Human primary T cells; Homo sapiens, T-cell, 24 h): 5.50

Cc1cc(NC2CC(C)(C)N(C)C(C)(C)C2)nc(Nc2ccc(N3CCN(S(C)(=O)=O)CC3)c(Cl)c2)n1 [IV-3]
pIC50 (Human primary T cells; Homo sapiens, T-cell, 24 h): 5.36

CCN(CC)C1CCC(Nc2nc(Nc3ccc(N4CCN(S(C)(=O)=O)CC4)c(Cl)c3)ncc2F)CC1 (stereo not shown) [IV-4, N2-[3-Chloro-4-(4-methylsulfonylpiperazino)]phenyl-N4-(4-diethylamino)cyclohexyl-5-fluoro-2,4-pyrimidinediamine]
pIC50 (Human primary T cells; Homo sapiens, T-cell, 24 h): 5.15

CCN(CC)C1CCC(Nc2nc(Nc3ccc(OC)c(Cl)c3)ncc2F)CC1 (stereo not shown) [IV-5, N2-(3-Chloro-4-methoxy)phenyl-N4-(4-diethylamino)cyclohexyl-5-fluoro-2,4-pyrimidinediamine]
pIC50 (Human primary T cells; Homo sapiens, T-cell, 24 h): 5.34

CCN(CC)C1CCC(Nc2nc(Nc3cccc(C#N)c3)ncc2F)CC1 (stereo not shown) [IV-6, N2-(3-Cyano)phenyl-N4-(4-diethylamino)cyclohexyl-5-fluoro-2,4-pyrimidinediamine]
pIC50 (Human primary T cells; Homo sapiens, T-cell, 24 h): 5.35

CCN(CC)C1CCC(Nc2nc(Nc3ccc(N4CCN(C)CC4)c(C(F)(F)F)c3)ncc2F)CC1 (stereo not shown) [IV-7, N4-(4-Diethylamino)cyclohexyl-5-fluoro-N2-[4-(4-methylpiperazino)-3-trifluoromethyl]phenyl-2,4-pyrimidinediamine]
pIC50 (Human primary T cells; 24 hours): 5.44

CCN(CC)C1CCC(Nc2nc(Nc3ccc(N4CCN(C)CC4)c(Cl)c3)ncc2F)CC1 (stereo not shown) [IV-8, N2-[3-Chloro-4-(4-methylpiperazino)]phenyl-N4-(4-diethylamino)cyclohexyl-5-fluoro-2,4-pyrimidinediamine]
pIC50 (Human primary T cells; Homo sapiens, T-cell, 24 h): 5.36

CCN(CC)C1CCC(Nc2nc(Nc3ccc(N4CCN(S(C)(=O)=O)CC4)c(C(F)(F)F)c3)ncc2F)CC1 (stereo not shown) [IV-9, N4-(4-Diethylamino)cyclohexyl-5-fluoro-N2-[4-(4-methylsulfonylpiperazino)-3-trifluoromethyl]phenyl-2,4-pyrimidinediamine]
pIC50 (Human primary T cells; Homo sapiens, T-cell, 24 h): 5.46
